Where two headings read alike, the source gives them in different places.
Tests used:
[1] = Liver accumulation of free 225Ac (acetate) injected into a mouse; format: in vivo
Procedure: In contrast to these two [225Ac]DOTA-IgG constructs, free ^225Ac (acetate) injected into a mouse rapidly accumulates in the liver: 40%, 40%, 65% at 24 h, 48 h, and 120 h, respectively.

[2] = Stability of 225Ac complexes of simple chelants: yttrium challenge and C-25 column elution
Procedure: Approximately, 200 μCi of ^225Ac solution was mixed with 10 μl of 50 mM of a ligand solution (such as DOTA) and pH was adjusted to about 6-6.5 with 33 μl of 3 M ammonium acetate. The reaction was kept in a water bath at 37° C. for completion in 2 hours. Reaction yield was monitored using 10 mM NaOH/9% NaCl solvent. Then, 10 μl of 77.5 mM Yttrium chloride solution was added to react with excess chelants for 30 minutes. There are two reasons for adding the 1.5 fold excess Yttrium: 1) if ^225Ac complex is not stable, Yttrium will replace ^225Ac c, and 2) Yttrium will react with chelants and make a final solution at metal excess. The excess metal will be held on a C-25 purification column and the radiometal complex can pass through the column. Therefore, the purified solution should contain a 1:1 metal to ligand ratio for the stability studies.
Each reaction solution was purified through a 1 ml C-25 column using a 5 ml of normal saline as eluting buffer. The first 2.5 ml elution was collected for the stability study. The activity in the eluate and the activity retaining on the column were measured using a dose calibrator 20 hours after purification.

[3] = Long-term in vitro stability of 225Ac-DOTA complex in 25% human serum (ITLC); format: in vitro ADME; settings: 37° C., after 1 month
Procedure: 100% human serum (Sigma Chemical Co., St. Louis, Mo.), 100% mouse serum and 25% human serum albumin (Swiss Red Cross, Bern, Switzerland) was used to determine stability of the ^225 Ac complexes and conjugates. Aliquots in serum are mixed with diethylenetriaminepentaacetic acid (DPTA) (Aldrich Chemical Co., Milwaukee, Wis.). ITLC was utilized with either a 10 mM EDTA or 10 mM NaOH/9% NaCl solvent system and ITLC SG strips (Gelman Science Inc., Ann Arbor, Mich.) to assess the complexation and conjugation efficiency of the chelants. The ITLC strips were analyzed by gas ionization detection with an Ambis 4000 (Ambis, San Diego, Calif.).
Long-term in vitro stability of the ^225Ac-DOTA complex was tested by mixing 100 μl of the purified sample with 900 μl of 25% human serum. The ^225Ac-DOTA and solution was incubated at 37° C. and sampled periodically over the course of 30 days. The samples were analyzed by ITLC.

[4] = system: human HL60 leukemia cells; settings: Bi-213 construct, S.A. 8.4 Ci/g; cited from earlier work
leukemia cells = settings: cumulative doses of up to 3.7 GBq (100 mCi); cited from earlier work
[5] = after yttrium addition, C-25 column

In the case of `CC(=O)[O-].CC(=O)[O-].CC(=O)[O-].[225Ac+3]` [free 225Ac (acetate)], the “accumulation in the liver” value ([1]; 24 h) is reported as 40%, the “accumulation in the liver” value ([1]; 48 h) is reported as 40% and the “accumulation in the liver” value ([1]; 120 h) is reported as 65%.

For `O=C(O)CCN1CCCN(CCC(=O)O)CCN(CCC(=O)O)CCCN(CCC(=O)O)CC1` [TETPA], the “stability of 225Ac complex (all 225Ac retained on the column)” value (“stability of 225Ac complex” for short) [2, 5] was “unstable”.

With `O=C([O-])CN1CCN(CC(=O)[O-])CCN(CC(=O)[O-])CCN(CC(=O)[O-])CC1.[225Ac+3]` [225Ac-DOTA] the metal remains complexed [3] was 85% and the “percentage of 225Ac activity eluted from the column” value ([2]; after […] excess yttrium, 1 ml C-25 column, normal saline, activity measured 20 hours after purification) was 98.7%.

For “[Bi-213]HuM195: 213Bi alpha-particle emitting HuM195 antibody construct, comparator”, the LD50 [4] is given as 200,000 pCi/mL and the “tumorocidal activity for leukemia cells” value (leukemia cells) is given as “major tumorocidal activity”.

For `O=C(O)CCN1CCN(CCC(=O)O)CCN(CCC(=O)O)CCN(CCC(=O)O)CC1` [DOTPA], the “stability of 225Ac complex” value [2, 5] was “unstable”.

With `O=C(O)CN(CCN(CC(=O)O)CC(=O)O)CCN(CC(=O)O)CC(=O)O` (225Ac complex, metal not drawn) [DTPA] the “stability of 225Ac complex” value [2] was “unstable”.

With `O=C(O)CN1CCCN(CC(=O)O)CCN(CC(=O)O)CCCN(CC(=O)O)CC1` [TETA] the “stability of 225Ac complex” value [2, 5] was “unstable”.

Reference: patent US6683162B2, “Targeted alpha particle therapy using actinium-255 conjugates” (Sloan Kettering Institute of Cancer Research, priority 2000, dated 2004)
